This is an account of results in ChEMBL document CHEMBL2321681, “Design, synthesis, and evaluation of imidazo[4,5-c]pyridin-4-one derivatives with dual activity at angiotensin II type 1 receptor and peroxisome proliferator-activated receptor-γ” (Bioorg Med Chem Lett, 2013).

For data set [1], the target named is T1, Peroxisome proliferator-activated receptor gamma (Homo sapiens, UniProt P37231).
T1 sequence (P37231 whole entry): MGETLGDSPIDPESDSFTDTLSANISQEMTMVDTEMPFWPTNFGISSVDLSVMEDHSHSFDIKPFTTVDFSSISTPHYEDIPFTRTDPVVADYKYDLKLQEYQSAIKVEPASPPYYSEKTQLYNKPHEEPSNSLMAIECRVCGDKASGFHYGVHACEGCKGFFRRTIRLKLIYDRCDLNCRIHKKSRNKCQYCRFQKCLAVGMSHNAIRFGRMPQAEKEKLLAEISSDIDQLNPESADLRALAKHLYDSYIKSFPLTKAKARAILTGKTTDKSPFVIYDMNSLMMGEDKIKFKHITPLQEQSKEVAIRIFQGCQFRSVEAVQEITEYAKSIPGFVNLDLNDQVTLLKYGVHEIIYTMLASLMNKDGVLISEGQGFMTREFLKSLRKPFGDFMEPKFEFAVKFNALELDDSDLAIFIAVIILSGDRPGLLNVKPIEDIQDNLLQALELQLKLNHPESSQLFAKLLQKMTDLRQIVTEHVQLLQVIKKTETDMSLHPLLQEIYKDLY
The data set can be described thus: Partial agonist activity at human PPARgamma-LBD/Gal4 DNA binding domain by transactivation assay.

The target of data set [2] is T2, Type-1 angiotensin II receptor (Homo sapiens, UniProt P30556).
T2 sequence (P30556 whole entry): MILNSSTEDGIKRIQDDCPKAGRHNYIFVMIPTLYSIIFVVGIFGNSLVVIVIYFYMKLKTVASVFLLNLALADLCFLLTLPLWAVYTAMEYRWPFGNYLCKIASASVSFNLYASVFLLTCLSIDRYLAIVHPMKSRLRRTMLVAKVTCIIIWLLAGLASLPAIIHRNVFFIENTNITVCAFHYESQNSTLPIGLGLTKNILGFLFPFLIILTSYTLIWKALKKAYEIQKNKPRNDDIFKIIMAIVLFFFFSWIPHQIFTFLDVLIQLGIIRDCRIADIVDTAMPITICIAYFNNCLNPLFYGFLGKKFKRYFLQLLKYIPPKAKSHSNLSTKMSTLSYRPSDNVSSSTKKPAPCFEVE

Another data set concerns the target Cytochrome P450 2D6 (Homo sapiens, UniProt P10635). As to the kind of experiment: Inhibition of CYP2D6 (unknown origin). The class given is ADME.
Data set [3] can be described thus: Kinetic solubility of the compound in potassium phosphate buffer at pH 6.5. In kind it is physicochemical. Conditions: read-out: Kinetic_solubility.
The target in a further data set is Cytochrome P450 3A4 (Homo sapiens, UniProt P08684). The data set can be described thus: Inhibition of CYP3A4 (unknown origin). In kind it is ADME.
Data set [4] is described as follows: Permeability of the compound by PAMPA. The class given is ADME. Particulars: read-out: permeability.
A short description of data set [5]: Octanol-buffer distribution co-efficient, log D of the compound by shake-flask method. In kind it is physicochemical.
Data set [6] is described as follows: Intrinsic clearance in human liver microsomes. On the technique in general: Liver microsomes are vesicles of endoplasmic reticulum, rich in cytochrome P450 enzymes.
The target in data set [7] is T3, Peroxisome proliferator-activated receptor delta (Homo sapiens, UniProt Q03181).
T3 sequence (Q03181 whole entry): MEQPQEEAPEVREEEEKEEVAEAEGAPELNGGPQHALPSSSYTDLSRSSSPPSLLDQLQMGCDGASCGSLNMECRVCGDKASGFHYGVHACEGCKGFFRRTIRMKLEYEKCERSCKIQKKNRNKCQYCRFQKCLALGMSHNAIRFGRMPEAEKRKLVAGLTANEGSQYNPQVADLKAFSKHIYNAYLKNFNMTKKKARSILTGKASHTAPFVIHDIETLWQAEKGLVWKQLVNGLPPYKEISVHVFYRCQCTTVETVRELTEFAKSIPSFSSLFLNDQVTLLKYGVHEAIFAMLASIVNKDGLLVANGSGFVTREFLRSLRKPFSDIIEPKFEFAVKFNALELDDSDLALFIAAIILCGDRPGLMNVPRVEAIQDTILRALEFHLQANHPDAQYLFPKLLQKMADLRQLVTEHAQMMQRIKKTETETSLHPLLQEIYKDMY
The data set can be described thus: Agonist activity at PPARbeta (unknown origin).

Data set [8] deals with T4, Peroxisome proliferator-activated receptor alpha (Homo sapiens, UniProt Q07869).
T4 sequence (Q07869 whole entry): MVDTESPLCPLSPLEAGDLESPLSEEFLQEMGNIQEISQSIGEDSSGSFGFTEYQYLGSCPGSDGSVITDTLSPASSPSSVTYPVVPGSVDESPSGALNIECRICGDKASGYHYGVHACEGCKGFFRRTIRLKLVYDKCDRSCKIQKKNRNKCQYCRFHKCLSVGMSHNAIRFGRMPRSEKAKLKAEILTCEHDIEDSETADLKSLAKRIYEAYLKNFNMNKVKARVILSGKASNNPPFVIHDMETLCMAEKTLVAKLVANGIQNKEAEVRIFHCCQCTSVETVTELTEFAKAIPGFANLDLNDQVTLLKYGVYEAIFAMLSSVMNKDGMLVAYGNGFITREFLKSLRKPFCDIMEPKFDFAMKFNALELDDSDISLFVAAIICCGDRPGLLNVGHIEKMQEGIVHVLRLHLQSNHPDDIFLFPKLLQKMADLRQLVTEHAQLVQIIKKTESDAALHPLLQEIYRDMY
As to the kind of experiment: Agonist activity at PPARalpha (unknown origin).

Each structure is given as a SMILES string. Values after ≈ are worked out from the molar mass of the structure shown. Where only a bound is given, the exact number is not on record here.

Cytochrome P450 3A4, sequence (P08684 whole entry): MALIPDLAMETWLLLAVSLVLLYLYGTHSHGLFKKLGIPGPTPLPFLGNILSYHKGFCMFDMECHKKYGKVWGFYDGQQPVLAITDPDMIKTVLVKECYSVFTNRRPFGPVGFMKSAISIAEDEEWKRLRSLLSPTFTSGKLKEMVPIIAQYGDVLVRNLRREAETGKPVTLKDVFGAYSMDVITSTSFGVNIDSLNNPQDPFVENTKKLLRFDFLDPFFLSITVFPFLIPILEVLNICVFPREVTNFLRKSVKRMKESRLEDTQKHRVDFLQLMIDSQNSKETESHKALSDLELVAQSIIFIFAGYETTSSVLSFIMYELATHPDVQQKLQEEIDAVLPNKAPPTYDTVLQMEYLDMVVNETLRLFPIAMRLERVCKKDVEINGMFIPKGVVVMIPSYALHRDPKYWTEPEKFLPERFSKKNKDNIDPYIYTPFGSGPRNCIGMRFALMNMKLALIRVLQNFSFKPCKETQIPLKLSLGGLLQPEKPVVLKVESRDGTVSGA
Cytochrome P450 2D6, sequence (P10635 whole entry): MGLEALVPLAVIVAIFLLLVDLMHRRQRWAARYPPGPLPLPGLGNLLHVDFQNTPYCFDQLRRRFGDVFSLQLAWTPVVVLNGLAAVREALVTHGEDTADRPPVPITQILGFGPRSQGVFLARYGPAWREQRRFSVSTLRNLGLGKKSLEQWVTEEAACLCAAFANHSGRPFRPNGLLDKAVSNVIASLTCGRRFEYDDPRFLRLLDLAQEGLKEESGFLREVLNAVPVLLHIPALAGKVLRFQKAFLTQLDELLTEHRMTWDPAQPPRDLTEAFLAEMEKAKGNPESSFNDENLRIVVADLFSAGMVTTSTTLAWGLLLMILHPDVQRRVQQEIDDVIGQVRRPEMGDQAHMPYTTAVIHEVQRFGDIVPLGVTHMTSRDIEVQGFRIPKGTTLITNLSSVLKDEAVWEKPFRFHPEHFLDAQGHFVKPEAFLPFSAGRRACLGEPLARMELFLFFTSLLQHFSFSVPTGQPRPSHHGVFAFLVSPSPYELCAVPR

With `CCc1nc2ccn(Cc3cccc(C)c3)c(=O)c2n1[C@H]1CCc2cc(-c3ccccc3-c3nnn[nH]3)ccc21`, in data set [1], the EC50 (usually the concentration giving half of the maximal effect) turned out to be 108 nM. Also, in [2], the IC50 (usually the concentration at which inhibition is half-maximal) was 36.9 nM.

Regarding `CCc1nc2ccn(Cc3ccccc3C)c(=O)c2n1[C@H]1CCc2cc(-c3ccccc3-c3nnn[nH]3)ccc21`, the “inhibition (INH)” value at Cytochrome P450 2D6 is 6%; against Cytochrome P450 3A4, 14%. For the same compound, the solubility kinetic in data set [3] came out at 3.5 µM (≈ 1.85 µg/mL). In addition, in data set [4], the Papp turned out to be 3.6 ×10⁻⁶ cm/s. For the same compound, the logD (commonly the decadic logarithm of the distribution of all forms, ionised or not, between an organic phase and buffer at a given pH) in data set [5] was found to be 2.6. Further, the microsomal CLint (in general, the capacity of the preparation to metabolise the compound, expressed as a volume cleared per time) in data set [6] stood at 32.6 µL/min/mg. The response in data set [1] was half-maximal at 97 nM (EC50). In [2], the IC50 came out at 5.1 nM.

For `CCc1nc2ccn(Cc3cccc(F)c3)c(=O)c2n1[C@H]1CCc2cc(-c3ccccc3-c3nnn[nH]3)ccc21`, the EC50 in data set [1] was 159 nM. Moreover, in [2], the IC50 came to 67.4 nM.

Compound `CCc1nc2ccn(Cc3ccccn3)c(=O)c2n1[C@H]1CCc2cc(-c3ccccc3-c3nnn[nH]3)ccc21` yielded an EC50 in data set [1] of 3580 nM. The compound also registered an IC50 in data set [2] of 63.8 nM.

In [1], `CCc1nc2ccn(Cc3ccccc3OC(F)(F)F)c(=O)c2n1[C@H]1CCc2cc(-c3ccccc3-c3nnn[nH]3)ccc21` registered an EC50 of 20 nM. Further, the IC50 in [2] was 29.3 nM.

`CCc1nc2ccn(Cc3ccccc3C(F)(F)F)c(=O)c2n1[C@H]1CCc2cc(-c3ccccc3-c3nnn[nH]3)ccc21` registered an EC50 in data set [1] of 187 nM. Moreover, the IC50 in data set [2] turned out to be 94.1 nM.

Compound `CCc1nc2ccn(CC(=O)N(C)C)c(=O)c2n1[C@H]1CCc2cc(-c3ccccc3-c3nnn[nH]3)ccc21` yielded an EC50 in [1] of over 100000 nM. For the same compound, in data set [2], the IC50 amounted to 24.4 nM.

Take `CCc1nc2ccn(Cc3ccccc3F)c(=O)c2n1[C@H]1CCc2cc(-c3ccccc3-c3nnn[nH]3)ccc21`: a half-maximal effect in data set [1] (EC50) was put at 103 nM. The compound further gave an IC50 in [2] of 37.7 nM.

As to `CCc1nc2ccn(Cc3c(C)noc3C)c(=O)c2n1[C@H]1CCc2cc(-c3ccccc3-c3nnn[nH]3)ccc21`, in data set [1], a half-maximal effect (EC50) was put at 4470 nM. This compound also displayed an IC50 in data set [2] of 63.4 nM.

For the compound `CCc1nc2ccn(Cc3cccc(C(F)(F)F)c3)c(=O)c2n1[C@H]1CCc2cc(-c3ccccc3-c3nnn[nH]3)ccc21`, in data set [1], the EC50 amounted to 449 nM. Also, inhibition in data set [2] was half-maximal at 81.6 nM (IC50).

Regarding `CCc1nc2ccn(Cc3ccccc3)c(=O)c2n1[C@H]1CCc2cc(-c3ccccc3-c3nnn[nH]3)ccc21`, the EC50 in data set [7] was over 50000 nM; in [8], over 50000 nM; in data set [1], 292 nM. The compound further gave an IC50 in [2] of 12.7 nM.

As to `CCc1nc2ccn(CC(=O)O)c(=O)c2n1[C@H]1CCc2cc(-c3ccccc3-c3nnn[nH]3)ccc21`, the EC50 in data set [1] is over 100000 nM. Moreover, half-maximal inhibition in data set [2] (IC50) required 348 nM.

For the compound `CCc1nc2ccn(CC(=O)OCc3ccccc3)c(=O)c2n1[C@H]1CCc2cc(-c3ccccc3-c3nnn[nH]3)ccc21`, the EC50 in data set [1] turned out to be 1250 nM. The IC50 in data set [2] amounted to 19.8 nM.

Take `CCc1nc2c(C)cn(Cc3ccccc3C#N)c(=O)c2n1[C@H]1CCc2cc(-c3ccccc3-c3nnn[nH]3)ccc21`: the “inhibition (INH)” value at Cytochrome P450 2D6 and at Cytochrome P450 3A4 was 0% each time. Further, the solubility kinetic in data set [3] was 5.2 µM (≈ 2.87 µg/mL). In data set [4], the Papp worked out at 19 ×10⁻⁶ cm/s. The compound also registered a logD in [5] of 2.5. The same compound yielded a microsomal CLint in data set [6] of 20.7 µL/min/mg. In data set [1], this compound showed an EC50 of 295 nM. This compound also returned an IC50 in [2] of 7 nM.

As for `CCc1nc2c(C)cn(Cc3ccccc3C)c(=O)c2n1[C@H]1CCc2cc(-c3ccccc3-c3nnn[nH]3)ccc21`, the “inhibition (INH)” value against Cytochrome P450 2D6 was found to be 4.5%; against Cytochrome P450 3A4, 3.5%. Also, the Papp in data set [4] is 7 ×10⁻⁶ cm/s. The compound also showed a logD in data set [5] of 2.9. This compound yielded a microsomal CLint in data set [6] of 37.5 µL/min/mg. Moreover, a half-maximal effect in data set [1] (EC50) was put at 42 nM. Moreover, half-maximal inhibition in [2] (IC50) required 6.8 nM.

Take `CCc1nc2cc[nH]c(=O)c2n1[C@H]1CCc2cc(-c3ccccc3-c3nnn[nH]3)ccc21`: in data set [1], the EC50 was over 100000 nM. In addition, the IC50 in data set [2] worked out at 593 nM.

In [1], `CCc1nc2ccn(Cc3ccncc3)c(=O)c2n1[C@H]1CCc2cc(-c3ccccc3-c3nnn[nH]3)ccc21` returned an EC50 of over 25000 nM. In data set [2], this compound displayed an IC50 of 250 nM.

Compound `CCc1nc2ccn(CC3CCCCC3)c(=O)c2n1[C@H]1CCc2cc(-c3ccccc3-c3nnn[nH]3)ccc21` showed an EC50 in [1] of 942 nM. This compound also came in with an IC50 in data set [2] of 41 nM.

In turn, `CCc1nc2ccn(CC(C)C)c(=O)c2n1[C@H]1CCc2cc(-c3ccccc3-c3nnn[nH]3)ccc21` registered an EC50 in data set [1] of 1710 nM. This compound yielded an IC50 in data set [2] of 19.4 nM.

As to `CCc1nc2ccn(Cc3ccccc3C#N)c(=O)c2n1[C@H]1CCc2cc(-c3ccccc3-c3nnn[nH]3)ccc21`, the “inhibition (INH)” value was 11% on Cytochrome P450 2D6 and 31% against Cytochrome P450 3A4. Besides, the solubility kinetic in data set [3] is 11.7 µM (≈ 6.3 µg/mL). For the same compound, in data set [4], the Papp was determined as 10.7 ×10⁻⁶ cm/s. Moreover, the logD in [5] came to 1.7. In [6], the microsomal CLint stood at 14 µL/min/mg. Also, the EC50 in data set [1] amounted to 685 nM. This compound came in with an IC50 in data set [2] of 13.5 nM.

For the compound `CCc1nc2ccn(Cc3cccnc3)c(=O)c2n1[C@H]1CCc2cc(-c3ccccc3-c3nnn[nH]3)ccc21`, the EC50 in data set [1] turned out to be 3640 nM. In [2], this compound came in with an IC50 of 45.2 nM.
